Data on 17 molecules can be found in the supplement of paper PMC8967900.
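Further: ALL cell lines in 384-well plates, five doses spanning 10,000-fold, each plate scaled between vehicle and 100 µmol/L benzalkonium chloride controls, sDSS an adapted area-under-curve metric.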

One assay deals with HAL-01. Description: selective drug sensitivity score (sDSS, relative to normal bone marrow) (sDSS (score)); higher = more potent and effective on the cell line relative to normal bone marrow cells. As to conditions: 72 h.
`Cc1ccc(C(=O)Nc2cccc(C(F)(F)F)c2)cc1Nc1nc(-c2cccnc2)nc2c1cnn2C` [NVP-BHG712] (top concentration 10000 nM): the “selective drug sensitivity score” value was determined as 2.98.

For the molecule `COC[C@H](NC(=O)c1cnc(C)s1)C(=O)N[C@@H](COC)C(=O)N[C@@H](Cc1ccccc1)C(=O)[C@@]1(C)CO1` [Oprozomib] (top concentration 2500 nM), the “selective drug sensitivity score” value is -0.8.

On to `Cc1ccc(C(=O)N(CCCN)[C@@H](c2oc3cc(Cl)ccc3c(=O)c2Cc2ccccc2)C(C)C)cc1` (top concentration 100 nM), for which the “selective drug sensitivity score” value was 3.66.

For the molecule `CCn1c(C(=O)N(C2CC2)C2CC2)cc2c3c(ncn3C)c(Nc3cc(C)n(C)n3)nc21` (top concentration 10000 nM), the “selective drug sensitivity score” value came out at 1.04.

In the case of `Nc1nc(Cl)nc2c1ncn2[C@@H]1O[C@H](CO)[C@@H](O)[C@@H]1F` [Clofarabine] (top concentration 10000 nM), the “selective drug sensitivity score” value was 2.7.

For `Cc1ccc(C(=O)Nc2ccc(Oc3cc4cnn(C)c4cc3-c3cn[nH]c3)c(F)c2)c(=O)n1-c1ccc(F)cc1` [Merestinib] (top concentration 1000 nM), the “selective drug sensitivity score” value came to 5.68.

Consider `Nc1ncn([C@@H]2O[C@H](CO)[C@@H](O)[C@H]2O)c(=O)n1` [Azacitidine] (top concentration 10000 nM), for which the “selective drug sensitivity score” value turned out to be 3.84.

With `CC(C)c1cc(-c2n[nH]c(=O)n2-c2ccc3c(ccn3C)c2)c(O)cc1O` [Ganetespib] (top concentration 1000 nM), the “selective drug sensitivity score” value was 0.74.

With `C[C@]1(c2nc3c(C(N)=O)cccc3[nH]2)CCCN1` [Veliparib] (top concentration 10000 nM), the “selective drug sensitivity score” value is 1.02.

The subject of another assay is KASUMI-10. Described as above. Particulars: 72 h.
`C/C=C1\NC(=O)[C@H]2CSSCC/C=C/[C@H](CC(=O)N[C@H](C(C)C)C(=O)N2)OC(=O)[C@H](C(C)C)NC1=O` [Romidepsin] (top concentration 1000 nM): the “selective drug sensitivity score” value was 1.86.

For the molecule `CN(C)CCOc1ccc(/C(=C(/CCCl)c2ccccc2)c2ccccc2)cc1` [Toremifene] (top concentration 10000 nM), the “selective drug sensitivity score” value is -5.42.

In the case of `CCCCc1nc2cc(/C=C/C(=O)NO)ccc2n1CCN(CC)CC` [Pracinostat] (top concentration 10000 nM), the “selective drug sensitivity score” value came to 6.18.

In the case of `Cn1ncc(Cl)c1-c1cc(C(=O)N[C@H](CN)Cc2cccc(F)c2)sc1Cl` [Afuresertib] (top concentration 1000 nM), the “selective drug sensitivity score” value is -2.34.

In the case of `Cc1cc(-c2nc(-c3ccc(OC(F)(F)F)cc3)no2)nn1Cc1ccnc(N2CCN(C3CC3)CC2)c1` [BAY_87-2243] (top concentration 1000 nM), the “selective drug sensitivity score” value was -6.66.

In the case of `CNc1nc(-c2ccc3c(N)n[nH]c3c2)cc(N2C[C@@H](C(=O)NC3CCCCC3)CC[C@H]2C)n1` (top concentration 10000 nM), the “selective drug sensitivity score” value turned out to be 0.46.

As to `CN1CC[C@H](c2c(O)cc(O)c3c(=O)cc(-c4ccccc4Cl)oc23)[C@H](O)C1` [Alvocidib] (top concentration 10000 nM), the “selective drug sensitivity score” value is -2.9.

`Cc1cc2c(C(C)C)c(O)c(O)c(C=O)c2c(O)c1-c1c(C)cc2c(C(C)C)c(O)c(O)c(C=O)c2c1O` [AT-101] (top concentration 100000 nM): the “selective drug sensitivity score” value amounted to 2.48.

`Cc1ccc(C(=O)Nc2cccc(C(F)(F)F)c2)cc1Nc1nc(-c2cccnc2)nc2c1cnn2C` [NVP-BHG712] (top concentration 10000 nM): the “selective drug sensitivity score” value was determined as 3.38.

With `COC[C@H](NC(=O)c1cnc(C)s1)C(=O)N[C@@H](COC)C(=O)N[C@@H](Cc1ccccc1)C(=O)[C@@]1(C)CO1` [Oprozomib] (top concentration 2500 nM), the “selective drug sensitivity score” value is 3.7.

On to `Cc1ccc(C(=O)N(CCCN)[C@@H](c2oc3cc(Cl)ccc3c(=O)c2Cc2ccccc2)C(C)C)cc1` (top concentration 100 nM), for which the “selective drug sensitivity score” value stood at 1.96.

Take `CCn1c(C(=O)N(C2CC2)C2CC2)cc2c3c(ncn3C)c(Nc3cc(C)n(C)n3)nc21` (top concentration 10000 nM): the “selective drug sensitivity score” value was -0.66.

Regarding `Nc1nc(Cl)nc2c1ncn2[C@@H]1O[C@H](CO)[C@@H](O)[C@@H]1F` [Clofarabine] (top concentration 10000 nM), the “selective drug sensitivity score” value was determined as 1.

On to `Cc1ccc(C(=O)Nc2ccc(Oc3cc4cnn(C)c4cc3-c3cn[nH]c3)c(F)c2)c(=O)n1-c1ccc(F)cc1` [Merestinib] (top concentration 1000 nM), for which the “selective drug sensitivity score” value was determined as 14.8.

Take `Nc1ncn([C@@H]2O[C@H](CO)[C@@H](O)[C@H]2O)c(=O)n1` [Azacitidine] (top concentration 10000 nM): the “selective drug sensitivity score” value was determined as 3.64.

For the molecule `CC(C)c1cc(-c2n[nH]c(=O)n2-c2ccc3c(ccn3C)c2)c(O)cc1O` [Ganetespib] (top concentration 1000 nM), the “selective drug sensitivity score” value was 4.64.

With `C[C@]1(c2nc3c(C(N)=O)cccc3[nH]2)CCCN1` [Veliparib] (top concentration 10000 nM), the “selective drug sensitivity score” value is -1.08.

The next assay relates to KASUMI-9. The description is as above. As to conditions: 72 h.
`C/C=C1\NC(=O)[C@H]2CSSCC/C=C/[C@H](CC(=O)N[C@H](C(C)C)C(=O)N2)OC(=O)[C@H](C(C)C)NC1=O` [Romidepsin] (top concentration 1000 nM): the “selective drug sensitivity score” value is 3.16.

Turning to `CN(C)CCOc1ccc(/C(=C(/CCCl)c2ccccc2)c2ccccc2)cc1` [Toremifene] (top concentration 10000 nM), the “selective drug sensitivity score” value worked out at 0.58.

As to `CCCCc1nc2cc(/C=C/C(=O)NO)ccc2n1CCN(CC)CC` [Pracinostat] (top concentration 10000 nM), the “selective drug sensitivity score” value stood at 8.18.

For `Cn1ncc(Cl)c1-c1cc(C(=O)N[C@H](CN)Cc2cccc(F)c2)sc1Cl` [Afuresertib] (top concentration 1000 nM), the “selective drug sensitivity score” value came to 1.86.

On to `Cc1cc(-c2nc(-c3ccc(OC(F)(F)F)cc3)no2)nn1Cc1ccnc(N2CCN(C3CC3)CC2)c1` [BAY_87-2243] (top concentration 1000 nM), for which the “selective drug sensitivity score” value was 5.24.

In the case of `CNc1nc(-c2ccc3c(N)n[nH]c3c2)cc(N2C[C@@H](C(=O)NC3CCCCC3)CC[C@H]2C)n1` (top concentration 10000 nM), the “selective drug sensitivity score” value came to 6.36.

`CN1CC[C@H](c2c(O)cc(O)c3c(=O)cc(-c4ccccc4Cl)oc23)[C@H](O)C1` [Alvocidib] (top concentration 10000 nM): the “selective drug sensitivity score” value was -0.7.

`Cc1cc2c(C(C)C)c(O)c(O)c(C=O)c2c(O)c1-c1c(C)cc2c(C(C)C)c(O)c(O)c(C=O)c2c1O` [AT-101] (top concentration 100000 nM): the “selective drug sensitivity score” value amounted to 6.48.

Consider `Cc1ccc(C(=O)Nc2cccc(C(F)(F)F)c2)cc1Nc1nc(-c2cccnc2)nc2c1cnn2C` [NVP-BHG712] (top concentration 10000 nM), for which the “selective drug sensitivity score” value turned out to be 5.18.

For `COC[C@H](NC(=O)c1cnc(C)s1)C(=O)N[C@@H](COC)C(=O)N[C@@H](Cc1ccccc1)C(=O)[C@@]1(C)CO1` [Oprozomib] (top concentration 2500 nM), the “selective drug sensitivity score” value was found to be 3.2.

Take `Cc1ccc(C(=O)N(CCCN)[C@@H](c2oc3cc(Cl)ccc3c(=O)c2Cc2ccccc2)C(C)C)cc1` (top concentration 100 nM): the “selective drug sensitivity score” value came to 4.16.

On to `CCn1c(C(=O)N(C2CC2)C2CC2)cc2c3c(ncn3C)c(Nc3cc(C)n(C)n3)nc21` (top concentration 10000 nM), for which the “selective drug sensitivity score” value was 0.04.

Take `Nc1nc(Cl)nc2c1ncn2[C@@H]1O[C@H](CO)[C@@H](O)[C@@H]1F` [Clofarabine] (top concentration 10000 nM): the “selective drug sensitivity score” value amounted to 7.3.

On to `Cc1ccc(C(=O)Nc2ccc(Oc3cc4cnn(C)c4cc3-c3cn[nH]c3)c(F)c2)c(=O)n1-c1ccc(F)cc1` [Merestinib] (top concentration 1000 nM), for which the “selective drug sensitivity score” value worked out at 0.18.

For the molecule `Nc1ncn([C@@H]2O[C@H](CO)[C@@H](O)[C@H]2O)c(=O)n1` [Azacitidine] (top concentration 10000 nM), the “selective drug sensitivity score” value was 5.14.

Take `CC(C)c1cc(-c2n[nH]c(=O)n2-c2ccc3c(ccn3C)c2)c(O)cc1O` [Ganetespib] (top concentration 1000 nM): the “selective drug sensitivity score” value was 0.14.

In the case of `C[C@]1(c2nc3c(C(N)=O)cccc3[nH]2)CCCN1` [Veliparib] (top concentration 10000 nM), the “selective drug sensitivity score” value was 1.72.
